Here are results for 5 compounds from ChEMBL document CHEMBL4368904 (J Med Chem, 2019).

Structures are written as SMILES. Active and inactive are the calls of the source. The rule behind the calls is not given here.

The target in series [1] is T1, Adenosine receptor A1 (Homo sapiens, UniProt P30542).
T1 sequence (P30542 whole entry): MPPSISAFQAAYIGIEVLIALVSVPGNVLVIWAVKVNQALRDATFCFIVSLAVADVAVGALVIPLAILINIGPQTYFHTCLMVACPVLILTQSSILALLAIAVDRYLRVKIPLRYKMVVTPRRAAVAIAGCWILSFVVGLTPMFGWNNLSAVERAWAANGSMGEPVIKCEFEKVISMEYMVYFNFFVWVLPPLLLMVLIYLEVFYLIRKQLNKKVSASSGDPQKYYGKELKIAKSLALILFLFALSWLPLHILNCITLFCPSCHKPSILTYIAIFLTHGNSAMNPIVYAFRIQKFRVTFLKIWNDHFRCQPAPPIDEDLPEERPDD
Put plainly: Displacement of [3H]N6-R-phenylisopropyladenosine from human A1A adenosine receptor expressed in CHO cell membranes after 60 mins by scintillation proximity assay.

Series [2] has as its target T2, Adenosine receptor A2a (Homo sapiens, UniProt P29274). Description: Displacement of [3H]2-[p-(2-carboxyethyl)phenylethylamino]-5-N-ethylcarboxamidoadenosine from human A2A adenosine receptor expressed in HEK293 cell membranes after 60 mins by scintillation proximity assay. Background: Displacement assays read how much labelled ligand stays bound in the presence of the test substance.

The target in series [3] is T3, Adenosine receptor A3 (Homo sapiens, UniProt P0DMS8).
T3 sequence (P0DMS8 whole entry): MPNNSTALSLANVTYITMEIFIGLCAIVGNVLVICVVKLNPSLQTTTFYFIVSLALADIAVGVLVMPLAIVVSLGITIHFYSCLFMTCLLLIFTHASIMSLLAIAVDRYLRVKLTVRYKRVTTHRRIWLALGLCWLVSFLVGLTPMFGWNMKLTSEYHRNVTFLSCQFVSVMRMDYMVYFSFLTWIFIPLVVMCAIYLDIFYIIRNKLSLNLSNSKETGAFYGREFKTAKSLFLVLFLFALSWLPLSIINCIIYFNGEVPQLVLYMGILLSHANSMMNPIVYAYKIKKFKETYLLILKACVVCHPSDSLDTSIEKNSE
Description: Displacement of [125I]N6-(4-amino-3-iodobenzyl)adenosine-5-N-methyluronamide from human A3A adenosine receptor expressed in CHO cell membranes after 60 mins by scintillation proximity assay.

Series [4] deals with Sigma intracellular receptor 2 (Homo sapiens, UniProt Q5BJF2). Description: Inhibition of sigma receptor 2 (unknown origin).
For series [5], the target named is Sigma non-opioid intracellular receptor 1 (Homo sapiens, UniProt Q99720). Put plainly: Inhibition of sigma receptor 1 (unknown origin).
Series [6] has as its target T4, Adenosine receptor A1 (Mus musculus, UniProt Q60612).
T4 sequence (Q60612 whole entry): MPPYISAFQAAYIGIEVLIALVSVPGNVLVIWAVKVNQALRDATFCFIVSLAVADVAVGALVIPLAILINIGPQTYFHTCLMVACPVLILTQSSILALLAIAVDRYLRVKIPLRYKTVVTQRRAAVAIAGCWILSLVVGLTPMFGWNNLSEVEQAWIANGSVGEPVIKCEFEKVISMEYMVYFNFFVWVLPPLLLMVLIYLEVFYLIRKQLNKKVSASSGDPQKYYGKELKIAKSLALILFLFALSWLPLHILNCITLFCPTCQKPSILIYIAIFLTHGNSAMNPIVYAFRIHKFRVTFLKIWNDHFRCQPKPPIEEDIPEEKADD
Put plainly: Displacement of [3H]N6-R-phenylisopropyladenosine from mouse A1A adenosine receptor expressed in CHO cell membranes after 60 mins by scintillation proximity assay.

Series [7] concerns the target Adenosine receptor A2a (Mus musculus) (UniProt Q60613). Put plainly: Displacement of [3H]2-[p-(2-carboxyethyl)phenylethylamino]-5-N-ethylcarboxamidoadenosine from mouse A2A adenosine receptor expressed in HEK293 cell membranes at 10 uM after 60 mins by scintillation proximity assay relative to adenosine 5-N-ethyluronamide.
Series [8] has as its target T5, Adenosine receptor A3 (Mus musculus, UniProt Q61618).
T5 sequence (Q61618 whole entry): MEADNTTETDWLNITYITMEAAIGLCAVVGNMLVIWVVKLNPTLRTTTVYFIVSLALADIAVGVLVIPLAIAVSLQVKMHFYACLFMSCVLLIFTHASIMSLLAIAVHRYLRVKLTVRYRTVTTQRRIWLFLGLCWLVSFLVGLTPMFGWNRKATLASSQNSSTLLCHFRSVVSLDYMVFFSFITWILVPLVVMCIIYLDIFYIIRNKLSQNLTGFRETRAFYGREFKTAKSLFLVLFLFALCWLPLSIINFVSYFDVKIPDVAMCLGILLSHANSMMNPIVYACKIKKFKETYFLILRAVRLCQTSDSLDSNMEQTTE
Put plainly: Displacement of [125I]N6-(4-amino-3-iodobenzyl)adenosine-5-N-methyluronamide from mouse A3A adenosine receptor expressed in CHO cell membranes after 60 mins by scintillation proximity assay.

Series [9] concerns the target 5-hydroxytryptamine receptor 2B (Homo sapiens, UniProt P41595). Description: Inhibition of 5HT2B (unknown origin).
Series [10] deals with Sodium-dependent noradrenaline transporter (Homo sapiens, UniProt P23975). Description: Inhibition of NET (unknown origin).
For series [11], the target named is T6, Adenosine receptor A1 (Mus musculus) (UniProt Q60612).
T6 sequence (whole entry): T4 sequence (Q60612 whole entry)
Put plainly: Agonist activity at mouse A1A adenosine receptor at 10 uM after 60 mins by [35S]GTPgammaS binding assay relative to (2S,3S,4R,5R)-5-(6-amino-9H-purin-9-yl)-N-ethyl-3,4-dihydroxytetrahydrofuran-2-carboxamide. Format: functional. On the technique in general: GTPγS is a poorly hydrolysed GTP analogue; its binding reports G protein activation.

The target in series [12] is T7, Adenosine receptor A3 (Mus musculus) (UniProt Q61618).
T7 sequence (whole entry): T5 sequence (Q61618 whole entry)
Put plainly: Agonist activity at mouse A3AR adenosine receptor at 10 uM after 60 mins by [35S]GTPgammaS binding assay relative to (2S,3S,4R,5R)-5-(6-amino-9H-purin-9-yl)-N-ethyl-3,4-dihydroxytetrahydrofuran-2-carboxamide. Format: functional.

Series [13] is filed under the species Mus musculus. Description: Selectivity index, ratio of Ki for mouse A3A adenosine receptor to Ki for mouse A1A adenosine receptor expressed in CHO cell membranes after 60 mins by scintillation proximity assay. In general terms: In a scintillation proximity assay essentially only radioactivity close to the scintillant gives light.
In series [14] the test system is Mus musculus. Description: Induction of hypothermia in C57BL/6J mouse assessed as body temperature at 3 mg/kg, ip measured at 60 mins post dose (reference value: 36.3 +/- 0.8 degC). Format: functional.
For series [15], the system named is Mus musculus. Description: Induction of hypothermia in C57BL/6J mouse assessed as activity counts at 3 mg/kg, ip measured at 60 mins post dose (reference value: 15.5 +/- 5.5). The format is functional.
The subject of series [16] is Mus musculus. Description: Induction of hypothermia in A1AR knock out C57BL/6J mouse assessed as effect on body temperature at 3 mg/kg, ip measured at 60 mins post dose. The format is functional, organism-based.
Series [17] can be described thus: Fraction unbound in human plasma at 10 uM. The format is ADME, cell-free.
Series [18] in a line: Fraction unbound in mouse plasma at 10 uM. The format is ADME, cell-free.
Series [19] is described as follows: Fraction unbound in rat plasma at 10 uM. Format: ADME, cell-free.
Series [20] has as its system Mus musculus. Description: Induction of hypothermia in A1AR/A3AR knock out C57BL/6J mouse assessed as effect on body temperature at 3 mg/kg, ip measured at 60 mins post dose. Format: functional, organism-based.
Series [21] has as its system Mus musculus. Put plainly: Induction of hypothermia in A3AR knock out C57BL/6J mouse assessed as effect on body temperature at 3 mg/kg, ip measured at 60 mins post dose. The format is functional, organism-based.
Series [22] addresses T2, Adenosine receptor A2a. Description: Displacement of [3H]2-[p-(2-carboxyethyl)phenylethylamino]-5-N-ethylcarboxamidoadenosine from human A2A adenosine receptor expressed in HEK293 cell membranes at 10 uM after 60 mins by scintillation proximity assay relative to adenosine 5-N-ethyluronamide.
In another series the target is Translocator protein (Homo sapiens, UniProt P30536). Put plainly: Inhibition of TSPO (unknown origin) at 10 uM relative to control.
The target in series [23] is 5-hydroxytryptamine receptor 7 (Homo sapiens, UniProt P34969). Put plainly: Inhibition of 5HT7R (unknown origin).
In series [24] the test system is Mus musculus. Description: Induction of hypothermia in C57BL/6J mouse assessed as body temperature at 1 mg/kg, ip measured at 60 mins post dose (reference value: 36.3 +/- 0.8 degC). Format: functional.

As usually defined, the Ki is a dissociation constant, usually derived from enzyme kinetics or from competition with a known ligand. For orientation: inhibition means the percentage by which the read-out fell short of the control. Read a low inhibition as little suppression. The Emax is the size of the effect at its maximum, as opposed to the concentration needed.

Chain of Sigma intracellular receptor 2 (Q5BJF2 whole entry): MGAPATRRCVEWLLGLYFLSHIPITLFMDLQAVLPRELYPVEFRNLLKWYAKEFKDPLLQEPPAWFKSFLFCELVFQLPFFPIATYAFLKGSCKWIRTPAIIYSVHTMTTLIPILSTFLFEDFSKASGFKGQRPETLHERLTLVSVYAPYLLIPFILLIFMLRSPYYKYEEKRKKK
T2 sequence (P29274 whole entry): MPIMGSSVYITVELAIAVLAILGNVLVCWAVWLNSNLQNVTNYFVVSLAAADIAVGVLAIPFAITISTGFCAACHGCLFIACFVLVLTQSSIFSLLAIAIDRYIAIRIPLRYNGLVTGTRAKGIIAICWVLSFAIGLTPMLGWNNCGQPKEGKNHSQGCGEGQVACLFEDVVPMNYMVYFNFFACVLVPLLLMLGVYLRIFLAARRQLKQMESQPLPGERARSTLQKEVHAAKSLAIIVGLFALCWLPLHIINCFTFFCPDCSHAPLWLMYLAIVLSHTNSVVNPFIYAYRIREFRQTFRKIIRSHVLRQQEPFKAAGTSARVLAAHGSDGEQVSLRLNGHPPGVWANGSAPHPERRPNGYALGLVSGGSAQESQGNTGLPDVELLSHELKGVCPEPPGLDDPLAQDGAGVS
Chain of Sigma non-opioid intracellular receptor 1 (Q99720 whole entry): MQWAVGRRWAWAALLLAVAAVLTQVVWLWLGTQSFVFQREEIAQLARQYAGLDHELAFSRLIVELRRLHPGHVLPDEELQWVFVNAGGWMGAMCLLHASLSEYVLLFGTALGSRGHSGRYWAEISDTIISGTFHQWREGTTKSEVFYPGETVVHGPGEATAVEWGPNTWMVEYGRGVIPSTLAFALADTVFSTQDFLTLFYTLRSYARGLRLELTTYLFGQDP
Chain of 5-hydroxytryptamine receptor 7 (P34969 whole entry): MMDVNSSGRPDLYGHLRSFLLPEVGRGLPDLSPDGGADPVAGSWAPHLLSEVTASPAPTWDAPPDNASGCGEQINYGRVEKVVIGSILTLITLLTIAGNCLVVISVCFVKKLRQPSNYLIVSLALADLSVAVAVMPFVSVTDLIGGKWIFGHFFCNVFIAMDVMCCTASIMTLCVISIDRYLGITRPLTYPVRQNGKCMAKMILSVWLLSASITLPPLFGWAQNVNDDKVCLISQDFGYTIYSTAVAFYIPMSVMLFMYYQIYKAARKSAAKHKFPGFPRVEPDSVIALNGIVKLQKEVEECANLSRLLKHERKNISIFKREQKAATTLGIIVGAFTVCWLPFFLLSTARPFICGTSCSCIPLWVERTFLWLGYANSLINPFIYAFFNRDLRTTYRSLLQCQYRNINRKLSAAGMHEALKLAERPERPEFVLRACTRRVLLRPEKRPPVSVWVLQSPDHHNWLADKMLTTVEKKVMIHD
Chain of Translocator protein (P30536 whole entry): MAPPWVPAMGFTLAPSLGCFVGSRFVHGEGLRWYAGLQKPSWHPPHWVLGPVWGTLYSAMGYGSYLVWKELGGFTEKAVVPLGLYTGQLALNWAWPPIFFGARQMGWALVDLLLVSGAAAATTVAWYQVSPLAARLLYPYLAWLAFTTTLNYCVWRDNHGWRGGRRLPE
Chain of Adenosine receptor A2a (Mus musculus) (Q60613 whole entry): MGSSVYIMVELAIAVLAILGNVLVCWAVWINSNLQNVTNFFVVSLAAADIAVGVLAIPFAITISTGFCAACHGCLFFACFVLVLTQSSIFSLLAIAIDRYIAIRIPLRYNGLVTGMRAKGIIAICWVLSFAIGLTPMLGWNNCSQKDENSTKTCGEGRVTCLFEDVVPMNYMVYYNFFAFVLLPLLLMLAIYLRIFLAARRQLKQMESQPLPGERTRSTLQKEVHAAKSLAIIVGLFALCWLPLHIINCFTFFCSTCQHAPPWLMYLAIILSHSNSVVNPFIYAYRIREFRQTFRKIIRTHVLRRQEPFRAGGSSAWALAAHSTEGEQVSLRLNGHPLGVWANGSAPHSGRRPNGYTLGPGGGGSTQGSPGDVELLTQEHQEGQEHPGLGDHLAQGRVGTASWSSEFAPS
Chain of 5-hydroxytryptamine receptor 2B (P41595 whole entry): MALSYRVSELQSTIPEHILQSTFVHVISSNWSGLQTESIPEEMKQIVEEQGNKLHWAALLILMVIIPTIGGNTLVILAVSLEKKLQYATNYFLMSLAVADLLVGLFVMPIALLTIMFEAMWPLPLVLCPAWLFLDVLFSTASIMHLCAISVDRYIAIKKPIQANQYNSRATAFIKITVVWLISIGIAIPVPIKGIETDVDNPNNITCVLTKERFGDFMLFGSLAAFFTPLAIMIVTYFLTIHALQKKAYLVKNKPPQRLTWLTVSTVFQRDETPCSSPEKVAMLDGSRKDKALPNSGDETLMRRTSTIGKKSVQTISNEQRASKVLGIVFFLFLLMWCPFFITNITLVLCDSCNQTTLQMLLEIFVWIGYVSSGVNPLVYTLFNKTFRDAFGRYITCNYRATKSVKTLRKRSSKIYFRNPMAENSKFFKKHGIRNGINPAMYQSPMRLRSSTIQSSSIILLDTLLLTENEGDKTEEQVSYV
Chain of Sodium-dependent noradrenaline transporter (P23975 whole entry): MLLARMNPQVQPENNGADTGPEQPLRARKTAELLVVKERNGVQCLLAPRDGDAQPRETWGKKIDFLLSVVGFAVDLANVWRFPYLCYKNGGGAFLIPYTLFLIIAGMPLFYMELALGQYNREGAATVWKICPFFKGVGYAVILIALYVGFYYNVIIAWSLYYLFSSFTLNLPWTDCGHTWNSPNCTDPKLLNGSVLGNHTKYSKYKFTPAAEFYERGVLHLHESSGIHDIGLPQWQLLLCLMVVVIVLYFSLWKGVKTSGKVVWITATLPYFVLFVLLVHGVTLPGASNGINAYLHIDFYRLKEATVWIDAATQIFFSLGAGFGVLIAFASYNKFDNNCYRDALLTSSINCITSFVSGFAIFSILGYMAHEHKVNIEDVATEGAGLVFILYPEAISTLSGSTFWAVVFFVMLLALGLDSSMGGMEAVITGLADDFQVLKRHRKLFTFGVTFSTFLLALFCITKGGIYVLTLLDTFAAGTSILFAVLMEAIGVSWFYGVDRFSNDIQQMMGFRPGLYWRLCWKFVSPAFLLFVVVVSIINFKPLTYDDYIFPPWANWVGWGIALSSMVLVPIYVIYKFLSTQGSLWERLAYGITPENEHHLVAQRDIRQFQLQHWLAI

As to `Nc1nc(Cl)nc2c1ncn2[C@H]1[C@H](O)[C@H](O)[C@]2(CCl)C[C@H]12`, the Ki on Adenosine receptor A1 [1] was determined as 7.61 nM; on Adenosine receptor A2a [2] it was 1750 nM; on Adenosine receptor A3 [3], 253 nM; in series [4], 2550 nM; in [5] it was 1970 nM.

For `OC[C@@]12C[C@@H]1[C@@H](n1cnc3c(N[C@H]4C[C@H]5CC[C@@H]4C5)nc(Cl)nc31)[C@H](O)[C@@H]2O`, the Ki at Adenosine receptor A1 [1] stood at 23.6 nM; on Adenosine receptor A1 [6], 1.05 nM; on Adenosine receptor A2a [2], 4260 nM; on Adenosine receptor A3 [3] it was 288 nM; on Adenosine receptor A3 [8] it was 574 nM; in [9] it was 472 nM. Besides, in [10], the Ki is 5740 nM. Also, in series [7], the inhibition worked out at 15%. Besides, the figures for the Emax in series [11] and in series [12] were 104% and 62%, respectively. For the same compound, in the series listed under Mus musculus [13], the Ratio Ki was 547. In addition, the T in the series with Mus musculus [14] was 33.4 °C. Moreover, the Activity with Mus musculus [15] was determined as 10. For the same compound, the outcome in the series with Mus musculus [16], in the series on Mus musculus [20] and in the series with Mus musculus [21] was inactive. Also, the Fu in series [17] was determined as 9.75%; in [18], 7.68%; in series [19] it was 6.59%.

As for `CCSC[C@H]1O[C@@H](n2cnc3c(NC(C4CCC4)C4CCC4)ncnc32)[C@H](O)[C@@H]1O`, the inhibition on Adenosine receptor A2a [22] was found to be 30%; against Translocator protein, 90%. The same compound had a Ki in [4] of 642 nM.

Turning to `O[C@@H]1[C@H](O)[C@@H](CCl)O[C@H]1n1cnc2c(N[C@H]3C[C@H]4CC[C@@H]3C4)ncnc21`, the Ki at Adenosine receptor A2a [2] amounted to 2050 nM; on Adenosine receptor A3 [3], 355 nM; at Adenosine receptor A3 [8], 1560 nM; in series [4], 432 nM; in series [5] it was 484 nM; in series [23] it was 1240 nM.

Consider `OC[C@H]1O[C@@H](n2cnc3c(NC4CCCC4)ncnc32)[C@H](O)[C@@H]1O` [N6-CYCLOPENTYLADENOSINE], for which, in the series on Mus musculus [24], the T was 32.4 °C.
